According to patent US6680025B2, “Device and method for photoactivation” (Cerus Corporation, priority 1989, dated 2004):

What was measured:
Type in all cases: biochemical
Taq polymerase = Taq polymerase (Thermus aquaticus, UniProt P19821); test: Taq primer extension of 71-mer after random addition of compound or photoproduct; conditions: for extension of 71-mer irradiated with compound: AMIP 200 μg/ml, AMDMIP 200 μg/ml, irradiated 15 minutes CE-I at 25° C.
Text: In this experiment, the ability of AMIP, AMDMIP and MIF to block replication of 71-mer is investigated by randomly adding each compound to the 71-mer. Of course, addition may only be random in the sense that one or more adducts may be formed with any one strand of nucleic acid. The actual placement of the isopsoralen may be governed by preferential binding at particular sites (e.g. A:T). In addition to blockage by random adducts, photoproducts of the various isopsoralens may be providing an inhibitory effect. No attempt to separate the effects of photoproduct from the effects of covalent adducts on the 71-mer template was made in this series of experiments.
In these experiments, the 71-mer template (10^−9 M) was primed with ^32P-SK-39 (10^−8) and extended with Taq polymerase in a total volume of […]. The dNTP concentration was 200 μM. In the control samples, the 71-mer, the primer, and the dNTPs were mixed in Taq buffer in a volume of 18 p1. These samples were initially denatured at 95° C. for 5 minutes, followed by equilibration at 55° C. for 3 minutes. Taq enzyme was then added (0.5 units) and the extension reaction was carried out for 5 minutes at 55° C. The reaction was stopped by making the solution 10 mM in EDTA. In another set of samples, the 71-mer in 10 μl was mixed with either AMIP (200 μg/ml), AMDMIP (200 μg/ml), or MIP (60 μg/ml). Half of these samples were irradiated for 15 minutes on the CE-I device at 25° C. The other half was kept in the dark as controls. These samples were then mixed with the primer and dNTPs as before, and were subjected to the same thermal profile and extension reactions as the samples that were described earlier. The results were examined by PAGE. The extended product bands were identified by autoradiography, excised and counted (data not shown). […]
71-mer was made up in Taq buffer. Samples were prepared as follows: 1) dark control samples were not subjected to activating light; 2) 10 μl samples of the 71-mer (2×10^−9 M) were irradiated in the presence of 200 μg/ml AMDMIP, and 3) 10 μl samples of a 200 μg/ml solution of AMDMIP were irradiated in the absence of the 71-mer target. All irradiations were carried out with the CE-I device at 25° C. After preparing the above samples, unirradiated AMDMIP was added to one set of the dark control samples. Another set of dark controls received irradiated AMDMIP. ^32P-SK-39 primer and dNTPs were then added to all samples and the volume was adjusted to 18 μl. These samples were denatured at 95° C. for 5 minutes, followed by equilibration at 55° C. for 3 minutes. Taq polymerase was then added and the extension reaction was carried out for 5 minutes. The reaction was stopped by bringing the samples to 10 mM in EDTA. The final concentrations of all reagents during the extension reactions were: […]

Reverse Transcriptase = test: Primer extension on monoadducted 71-mer, reverse transcriptase; conditions: 37° C., 0, 5 or 15 minutes
[1] = tested on: 500-mer (lambda plasmid, primers PCR 01/02); test: Sterilization sensitivity, 500-mer PCR product; conditions: CE-III 15 minutes, 30 cycles
Text: (§1) As discussed generally for sterilization, it is expected that the sensitivity of sterilization will depend upon both the modification density and the length of the PCR target sequences. In this experiment, the effect of modification density and target length on sterilization sensitivity were examined by sterilizing two different length PCR products with either AMIP or AMDMIP. Each isopsoralen was used at two different concentrations for the sterilization procedure to produce differing modification densities on PCR targets.
(§2) The two PCR targets used in these experiments were a 115-mer (SK-38/SK-39 HIV system) and a 500-mer. The 500-mer target is obtained from a PCR amplification of a lambda plasmid with primers PCR 01/02. This system is provided by Cetus/Perkin Elmer as a control in their commercial kits of PCR reagents (Catalogue No. N801-0055). For both of these systems equivalent copy numbers of each target were prepared in the following manner: An initial 30 cycle PCR reaction was carried out for each system with the appropriate primers and targets. Aliquots (approximately 10^5-10^6 target copies) of each of these reactions were transferred to a second set of PCR reactions. These second sets of PCR amplifications were carried out in the presence of α-32P-dCTP, again for 30 cycles. Aliquots of these reactions were removed and counted by liquid scintillation counting. With these numbers, the specific activity of the α-32P-dCTP, and the sequence of each of the PCR product oligonucleotides (115-mer and 500-mer), the concentrations of each of the two PCR product oligonucleotides in the second set of PCR reaction tubes was determined. Both the 115-mer and the 500-mer concentrations were then adjusted to exactly 1×10^−8M by the addition of additional Taq buffer. These stocks of equivalent copy number of PCR products were then used for further investigation. Each of the stock solutions then was subdivided into four reaction tubes. The reaction tubes were adjusted to contain the following: Tube 1, 100 μg/ml AMIP; Tube 2, 400 μg/ml AMIP; Tube 3, 100 μ/ml AMDMIP: and Tube 4, 400 μg/ml AMDMIP. Each of these samples were again split into two portions, one part being irradiated for 15 minutes at room temperature with the CE-III device and the other part kept in the dark. Serial dilutions of the irradiated and the unirradiated targets were then carried out on these samples for 30 cycles in the presence of α-32P-CTP. Aliquots of these samples were analyzed on denaturing polyacrylamide gels. The PCR product bands were visualized by autoradiography, cut, and counted in a liquid scintillation counter.

[2] = tested on: 115-mer (SK-38/SK-39 HIV system); test: Sterilization sensitivity, 115-mer PCR product; conditions: CE-III 15 minutes, 30 cycles
Text: as §1, §2

E. coli DNA Polymerase = test: Primer extension on monoadducted 71-mer, E. coli DNA polymerase; conditions: 37° C., 0, 5 or 15 minutes
Klenow Polmerase = test: Primer extension on monoadducted 71-mer, Klenow polymerase; conditions: 37° C., 0, 5 or 15 minutes

Chain of Taq polymerase (P19821 whole entry): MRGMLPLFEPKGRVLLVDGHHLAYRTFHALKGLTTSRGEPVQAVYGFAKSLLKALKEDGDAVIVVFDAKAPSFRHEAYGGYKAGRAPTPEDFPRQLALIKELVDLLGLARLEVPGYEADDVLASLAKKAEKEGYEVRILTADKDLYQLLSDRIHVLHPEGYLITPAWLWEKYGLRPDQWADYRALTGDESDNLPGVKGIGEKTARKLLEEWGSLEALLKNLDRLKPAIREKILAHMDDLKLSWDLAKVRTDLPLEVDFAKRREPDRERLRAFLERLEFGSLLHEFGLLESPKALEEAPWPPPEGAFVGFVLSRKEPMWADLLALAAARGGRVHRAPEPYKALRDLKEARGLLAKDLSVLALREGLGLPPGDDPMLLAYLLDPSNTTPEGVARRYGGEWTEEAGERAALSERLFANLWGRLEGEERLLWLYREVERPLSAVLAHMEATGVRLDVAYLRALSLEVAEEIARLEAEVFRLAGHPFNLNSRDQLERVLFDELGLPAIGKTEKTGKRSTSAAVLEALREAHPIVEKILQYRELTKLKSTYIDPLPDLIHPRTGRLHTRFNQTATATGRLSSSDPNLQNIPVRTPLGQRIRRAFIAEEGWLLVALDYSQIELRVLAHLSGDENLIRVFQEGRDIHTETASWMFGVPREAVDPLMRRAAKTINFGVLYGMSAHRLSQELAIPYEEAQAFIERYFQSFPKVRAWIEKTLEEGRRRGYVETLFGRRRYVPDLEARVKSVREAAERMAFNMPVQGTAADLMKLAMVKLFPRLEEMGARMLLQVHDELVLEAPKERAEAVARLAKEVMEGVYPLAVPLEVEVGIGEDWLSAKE

In the case of `Cc1oc2ccc3c(C)cc(=O)oc3c2c1CN` [AMDMIP, 4′-Aminomethyl-4,5′-dimethylisopsoralen], the “extension of 71-mer irradiated in the presence of AMDMIP” value (Taq polymerase; 200 μg/ml during irradiation, CE-I at 25° C.) is reported as “no extension products at all”, the “extension of 71-mer, dark control with unirradiated AMDMIP” value (Taq polymerase; AMDMIP 100 μg/ml final) is reported as “full length extension product” and the “extension of 71-mer irradiated with compound” value (shortened to “extension … with compound”) (Taq polymerase; MIP 60 μg/ml) is reported as “not extended at all”. The “block of primer extension by 71-mer monoadduct” value (“block of primer extension” for short) (Reverse Transcriptase) was “complete stop”, the “sterilization sensitivity (carryover sterilized)” value (“sterilization sensitivity” below) ([1]; 100 μg/ml) was ≥ 6×10^9 carryover molecules and the “sterilization sensitivity” value ([1]; 400 μg/ml) was “no signal in the irradiated dilution series”. For the same compound, the “sterilization sensitivity” value ([2]; 100 μg/ml) was “better sterilization agent”, the “sterilization sensitivity” value ([2]; 400 μg/ml) was ≥ 6×10^9 carryover molecules and the “block of primer extension” value (E. coli DNA Polymerase) was “complete stop”. For the same compound, the “block of primer extension” value (Klenow Polmerase) was “complete stop”.

`NCc1cc2occc2c2oc(=O)ccc12` [AMIP, 5-Aminomethylisopsoralen] was tested, and the “extension … with compound” value (Taq polymerase; MIP 60 μg/ml) was “not extended at all”, the “block of primer extension” value (Reverse Transcriptase) was “complete stops” and the “sterilization sensitivity” value ([1]; 100 μg/ml) was “more effectively sterilized than the 115-mer PCR product”. The “sterilization sensitivity” value ([1]; 400 μg/ml) was ≥ 6×10^9 molecules of carryover, the “sterilization sensitivity” value ([2]; 100 μg/ml) was “about 10,000 molecules of carryover” and the “sterilization sensitivity” value ([2]; 400 μg/ml) was “about 10^6 carryover molecules”. For the same compound, the “block of primer extension” value (E. coli DNA Polymerase) was “not complete stops” and the “block of primer extension” value (Klenow Polmerase) was “not complete stops”.

With `Cc1cc2occc2c2oc(=O)ccc12` [MIP, 5-Methylisopsoralen] the “extension … with compound” value (Taq polymerase; MIP 60 μg/ml) was “some full length extension product and a minor truncated product”, the “amount of full length product versus control samples” value (Taq polymerase; MIP 60 μg/ml, irradiated 15 minutes CE-I) was “half of that observed with the control samples” and the “block of primer extension” value (Reverse Transcriptase) was “complete stops”. The “block of primer extension” value (E. coli DNA Polymerase) was “not complete stops” and the “block of primer extension” value (Klenow Polmerase) was “not complete stops”.
